Experimental data published in PubChem BioAssay (NCI).
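Dose response: 5 concentrations. Exposure: 48 h. Format: 96-well plates. Endpoint: linear interpolation; highest concentration if not reached. TGI marks complete inhibition of growth.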

What was measured:
Assay in all cases: inhibition of tumour cell growth, NCI panel, 48 h
786-0 renal = test system: 786-0 renal
A498 renal = test system: A498 renal
A549 NSCLC = test system: A549 NSCLC
ACHN renal = test system: ACHN renal
BT-549 breast = test system: BT-549 breast
CAKI-1 renal = test system: CAKI-1 renal
CCRF-CEM leukemia = test system: CCRF-CEM leukemia
COLO 205 colon = test system: COLO 205 colon
DU-145 prostate = test system: DU-145 prostate
EKVX NSCLC = test system: EKVX NSCLC
HCC-2998 colon = test system: HCC-2998 colon
HCT-116 colon = test system: HCT-116 colon
HCT-15 colon = test system: HCT-15 colon
HL-60(TB) leukemia = test system: HL-60(TB) leukemia
HOP-62 NSCLC = test system: HOP-62 NSCLC
HT29 colon = test system: HT29 colon
IGROV1 ovarian = test system: IGROV1 ovarian
K-562 leukemia = test system: K-562 leukemia
KM12 colon = test system: KM12 colon
LOX IMVI melanoma = test system: LOX IMVI melanoma
M14 melanoma = test system: M14 melanoma
MALME-3M melanoma = test system: MALME-3M melanoma
MCF7 breast = test system: MCF7 breast
MDA-MB-435 = test system: MDA-MB-435
MDA-N = test system: MDA-N
MOLT-4 leukemia = test system: MOLT-4 leukemia
NCI-H23 lung = test system: NCI-H23 lung
NCI-H460 lung = test system: NCI-H460 lung
NCI-H522 lung = test system: NCI-H522 lung
NCI/ADR-RES ovarian = test system: NCI/ADR-RES ovarian
OVCAR-3 ovarian = test system: OVCAR-3 ovarian
OVCAR-4 ovarian = test system: OVCAR-4 ovarian
OVCAR-5 ovarian = test system: OVCAR-5 ovarian
OVCAR-8 ovarian = test system: OVCAR-8 ovarian
PC-3 prostate = test system: PC-3 prostate
RPMI-8226 leukemia = test system: RPMI-8226 leukemia
SF-295 CNS = test system: SF-295 CNS
SF-539 CNS = test system: SF-539 CNS
SK-MEL-2 melanoma = test system: SK-MEL-2 melanoma
SK-MEL-28 melanoma = test system: SK-MEL-28 melanoma
SK-MEL-5 melanoma = test system: SK-MEL-5 melanoma
SK-OV-3 ovarian = test system: SK-OV-3 ovarian
SNB-19 CNS = test system: SNB-19 CNS
SR leukemia = test system: SR leukemia
SW-620 colon = test system: SW-620 colon
T-47D breast = test system: T-47D breast
U251 CNS = test system: U251 CNS
UACC-257 melanoma = test system: UACC-257 melanoma
UACC-62 melanoma = test system: UACC-62 melanoma
UO-31 renal = test system: UO-31 renal

For `O=C1/C(=C\c2ccc(Cl)cc2)N=C(c2ccccc2)N1n1c(=O)cn[nH]c1=S`, the TGI (786-0 renal) was 39.7 µM, the TGI (A498 renal) was > 100 µM and the TGI (A549 NSCLC) was > 100 µM. For the same molecule, the TGI (ACHN renal) was > 100 µM, the TGI (BT-549 breast) was 92.3 µM and the TGI (CAKI-1 renal) was > 100 µM. The TGI (CCRF-CEM leukemia) was 15.7 µM, the TGI (COLO 205 colon) was > 100 µM and the TGI (DU-145 prostate) was 58.3 µM. For the same molecule, the TGI (EKVX NSCLC) was > 100 µM, the TGI (HCC-2998 colon) was > 100 µM and the TGI (HCT-116 colon) was > 100 µM. The TGI (HCT-15 colon) was 69.5 µM, the TGI (HL-60(TB) leukemia) was 64.6 µM and the TGI (HOP-62 NSCLC) was > 100 µM. For the same molecule, the TGI (HT29 colon) was > 100 µM, the TGI (IGROV1 ovarian) was 66.1 µM and the TGI (K-562 leukemia) was 54.9 µM. For the same molecule, the TGI (KM12 colon) was > 100 µM, the TGI (LOX IMVI melanoma) was 65.3 µM and the TGI (M14 melanoma) was > 100 µM. For the same molecule, the TGI (MALME-3M melanoma) was > 100 µM, the TGI (MCF7 breast) was 35.4 µM and the TGI (MDA-MB-435) was 87 µM. The TGI (MDA-N) was > 100 µM, the TGI (MOLT-4 leukemia) was 53.3 µM and the TGI (NCI-H23 lung) was 43.6 µM. For the same molecule, the TGI (NCI-H460 lung) was > 100 µM, the TGI (NCI-H522 lung) was 37.2 µM and the TGI (NCI/ADR-RES ovarian) was > 100 µM. The TGI (OVCAR-3 ovarian) was 76.2 µM, the TGI (OVCAR-4 ovarian) was 69 µM and the TGI (OVCAR-5 ovarian) was > 100 µM. The TGI (OVCAR-8 ovarian) was 45.8 µM, the TGI (PC-3 prostate) was > 100 µM and the TGI (RPMI-8226 leukemia) was 62.1 µM. For the same molecule, the TGI (SF-295 CNS) was > 100 µM, the TGI (SF-539 CNS) was > 100 µM and the TGI (SK-MEL-2 melanoma) was > 100 µM. The TGI (SK-MEL-28 melanoma) was > 100 µM, the TGI (SK-MEL-5 melanoma) was 55.3 µM and the TGI (SK-OV-3 ovarian) was > 100 µM. For the same molecule, the TGI (SNB-19 CNS) was > 100 µM, the TGI (SR leukemia) was 72.6 µM and the TGI (SW-620 colon) was 44.4 µM. The TGI (T-47D breast) was 28.6 µM, the TGI (U251 CNS) was 37.7 µM and the TGI (UACC-257 melanoma) was > 100 µM. The TGI (UACC-62 melanoma) was > 100 µM and the TGI (UO-31 renal) was > 100 µM.
